In patent US20200039970A1, “HYDANTOIN MODULATORS OF KV3 CHANNELS” (Autifony Therapeutics Limited, priority 2016, published 2020):

Tests used:
[1] = biological target: T1, human Kv3.1 channels (hKv3.1) (Homo sapiens, UniProt P48547); experiment: IonWorks Quattro whole-cell current potentiation assay, hKv3.1 (Biological Example 1); format: cell-based; conditions: recombinant cell assay, -15 mV voltage step; positive modulator = at least 20% of effect of 50 microM reference compound
T1 construct: expressed in transfected cells; host or cells: CHO/Gam/E1A-clone22 (CGE22) cells, CHO-K1-derived, transduced with BacMam pFBM/human Kv3.1
T1 sequence (P48547 1-511): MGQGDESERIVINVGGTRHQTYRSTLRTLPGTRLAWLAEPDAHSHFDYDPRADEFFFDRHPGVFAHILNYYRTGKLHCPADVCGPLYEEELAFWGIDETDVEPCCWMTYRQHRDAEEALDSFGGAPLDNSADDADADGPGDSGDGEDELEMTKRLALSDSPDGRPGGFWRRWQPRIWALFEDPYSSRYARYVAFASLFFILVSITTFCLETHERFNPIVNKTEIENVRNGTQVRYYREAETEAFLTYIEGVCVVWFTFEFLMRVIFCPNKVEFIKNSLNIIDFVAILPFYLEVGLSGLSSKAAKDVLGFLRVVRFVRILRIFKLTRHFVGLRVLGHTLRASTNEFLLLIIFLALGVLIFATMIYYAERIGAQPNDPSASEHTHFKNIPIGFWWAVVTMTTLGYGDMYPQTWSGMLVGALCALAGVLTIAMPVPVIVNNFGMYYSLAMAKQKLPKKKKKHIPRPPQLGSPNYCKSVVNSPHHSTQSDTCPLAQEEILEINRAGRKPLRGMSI
Description: (§1) The ability of the compound of the invention to modulate the voltage-gated potassium channel subtypes Kv3.2 or Kv3.1 may be determined using the following assay. Analogous methods may be used to investigate the ability of the compound of the invention to modulate other channel subtypes, including Kv3.3 and Kv3.4.
To assess compound effects on human Kv3.1 channels (hKv3.1), CHO/Gam/E1A-clone22 alias CGE22 cells were transduced using a hKv3.1 BacMam reagent. This cell line was designed to be an improved CHO-K1-based host for enhanced recombinant protein expression as compared to wild type CHO-K1.
The cell line was generated following the transduction of CHO-K1 cells with a BacMam virus expressing the Adenovirus-Gam1 protein and selection with Geneticin-G418, to generate a stable cell line, CHO/Gam-A3. […]
(§2) Experiments were conducted at room temperature using IonWorks Quattro™ planar array electrophysiology technology (Molecular Devices Corp.) with PatchPlate™ PPC. […] Planar electrode hole resistances(Rp) were determined by applying a 10 mV voltage step across each well. […] Test pulses protocol may be performed in the absence (pre-read) and presence (post-read) of the test compound. Pre- and post-reads may be separated by the compound addition followed by a 3 minute incubation. […]

[2] = Determination of in vivo pharmacokinetic parameters (Biological Example 3); set-up: species or system rat; conditions: for Tmax: Median
Experimental: […] After oral administration, blood samples are collected under deep Isofluorane anesthesia from the portal vein and heart of each rat (1 rat per time point). After intravenous administration, serial blood samples are collected from the lateral tail vein of each rat. A further group of rats (n=1 per test compound) receive a single intravenous administration of the PgP transport inhibitor, Elacridar (3 mg/kg) shortly before the oral administration of the test compound at 1 mg/kg, as above. Blood and brain samples ar collected at a single timepoint of 0.5 h after dose administration for these animals. In all cases, blood samples are collected into potassium EDTA tubes.
Blood and brain samples can be assayed for test compound concentration using a method based on protein precipitation with acetonitrile followed by HPLC/MS-MS analysis with an optimized analytical method.
The concentrations of test compound in blood (expressed as ng/ml) and brain (expressed as ng/g) at the different time points following either oral or intravenous dosing are analysed using a non-compartmental pharmacokinetic model using WinNonLin Professional version 4.1. The following parameters are derived:
Intravenous dosing: Maximum concentration over time (Cmax), integrated concentration over time (AUC), clearance (Clb), volume of distribution (Vss) and half-life (t1/2).
Oral dosing: Cmax, time of maximum concentration (Tmax), AUC, bioavailability (F %), fraction absorbed (Fa %), blood to brain ratio (AUC BB), and Fold-change in AUC BB in the presence of Elacridar.

[3] = biological target: T2, human Kv3.2 channels (hKv3.2) (Homo sapiens, UniProt Q96PR1); experiment: IonWorks Quattro whole-cell current potentiation assay, hKv3.2 (Biological Example 1); format: cell-based; conditions: recombinant cell assay, -15 mV voltage step; positive modulator = at least 20% of effect of 50 microM reference compound
T2 construct: expressed in transfected cells
T2 sequence (Q96PR1 1-638): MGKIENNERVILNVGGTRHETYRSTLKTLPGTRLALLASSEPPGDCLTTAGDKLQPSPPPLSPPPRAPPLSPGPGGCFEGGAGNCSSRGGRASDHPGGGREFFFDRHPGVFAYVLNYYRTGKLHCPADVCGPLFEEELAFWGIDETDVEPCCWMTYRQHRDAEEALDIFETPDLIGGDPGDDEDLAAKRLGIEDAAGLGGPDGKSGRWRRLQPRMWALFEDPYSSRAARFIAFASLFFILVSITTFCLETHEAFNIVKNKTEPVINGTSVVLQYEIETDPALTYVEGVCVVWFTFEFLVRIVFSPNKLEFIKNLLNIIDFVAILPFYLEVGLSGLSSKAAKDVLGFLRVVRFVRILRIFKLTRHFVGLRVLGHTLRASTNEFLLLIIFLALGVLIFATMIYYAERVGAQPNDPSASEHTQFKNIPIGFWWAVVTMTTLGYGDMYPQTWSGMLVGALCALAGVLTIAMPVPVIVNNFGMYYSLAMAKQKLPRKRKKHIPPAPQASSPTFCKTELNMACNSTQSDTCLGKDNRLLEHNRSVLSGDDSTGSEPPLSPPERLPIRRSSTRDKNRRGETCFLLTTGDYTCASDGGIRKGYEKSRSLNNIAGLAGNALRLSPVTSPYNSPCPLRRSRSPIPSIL
Description: as §1
To assess compound effects on human Kv3.2 channels (hKv3.2), a stable cell line expressing hKv3.2 was created by transfecting Chinese Hamster Ovary (CHO)-K1 cells with a pClH5-hKv3.2 vector. Cells were cultured in DMEM/F12 medium supplemented by 10% Foetal Bovine Serum, 1× non-essential amino acids (Invitrogen) and 500 ug/ml of Hygromycin-B (Invitrogen). Cells were grown and maintained at 37° C. in a humidified environment containing 5% CO2 in air.
The day of the experiment, cells were removed from the incubator and the culture medium removed. […]
as §2

[4] = male, rat, whole blood, Blood, IV 1 mg/kg, Mean
[5] = male, rat, whole blood, Blood, PO 3 mg/kg, Mean

## CC[C@H]1NC(=O)N(c2ccc(Oc3ccc(C)c4c3C3(CC3)CO4)cn2)C1=O [compound of the invention]
[1]
  modulation of Kv3.1 channels (whole-cell currents): positive modulators
[2]; Blood, PO 3 mg/kg vs IV 1 mg/kg
  Bioavailability (%) Using AUCinf: 138%
[2]; in vivo pharmacokinetics
  availability: good availability
[2]; [4]
  AUC(0-inf): 353 ng·h/mL
  Cmax: 904 ng/mL
  clearance: 47.6 mL/min/kg
  half-life: 15.6 min
[2]; male, rat, whole blood, Blood, IV 1 mg/kg, Mean, read-out: Vdss
  Vd: 1 L/kg
[2]; male, rat, whole blood, Blood, IV 1 mg/kg
  Tmax: 4.98 min
[2]; [5]
  AUC(0-inf): 1440 ng·h/mL
  Cmax: 1660 ng/mL
  half-life: 24.6 min
[2]; male, rat, whole blood, Blood, PO 3 mg/kg
  Tmax: 15 min
[3]
  modulation of Kv3.2 channels (whole-cell currents): positive modulators
